Data on 1 substance can be found in paper PMC7219108, “Pisum sativum Defensin 1 Eradicates Mouse Metastatic Lung Nodules from B16F10 Melanoma Cells” (International Journal of Molecular Sciences, 2020).

The assay has as its system recombinant cyclin F-GST. Put plainly: Surface plasmon resonance, Psd1-cyclin F interaction. In kind it is binding. Here is the method:
Surface plasmon resonance (SPR) assays were run on a Biacore X (GE Healthcare Life Sciences, Amersham, UK) apparatus in real time using a CM5 sensor chip at 25 °C. Briefly, CM5 chip activation was performed by injection of 100 µL of a 1:1 mixture of amine coupling kit (750 mg 1-ethyl-3-(3-dimethylaminopropyl) carbodiimide hydrochloride (EDC), 115 mg N-hydroxysuccinimide (NHS), 2 × 10.5 mL 1.0 M ethanolamine-HCl pH 8.5) with a continuous flow of 2 µL/min. Then, 100 µL of […] recombinant cyclin F-GST diluted in 10 mM sodium acetate pH 4.0 buffer was immobilized by amine coupling onto the carboxylate dextran layer of CM5 with the same flow. This was injected with 80 µL of 1 M ethanolamine pH 8.0 to block the remaining binding free sites of the protein. To evaluate the interaction of Psd1 with the cyclin F protein, increasing concentrations of the peptide (10–240 µM) in 100 µL of running buffer (10 mM HEPES, 150 mM NaCl, pH 7.4) were injected using a flow rate of 15 µL/min for 4 min. After the injection ended, the dissociation phase was measured in not less than 300 s. The Psd1-GST-cyclin F interaction curves were subtracted from the respective curves obtained for Psd1-GST to discount possible artifact interactions with GST alone. […]
A general note: In SPR one partner is held on a chip, and binding of the other changes the refractive index at the surface.

On to “Psd1: 46-amino acid residue plant defensin isolated from pea seeds, expressed in Pichia pastoris (PDB 1JKZ) (KTCEHLADTYRGVCFTNASCDDHCKNKAHLISGTCHNWKCFCTQNC)”, for which, where the note is “after Psd1 injection, 15 µL/min, 4 min”, the “SPR association phase, onset of response” value is recorded as 80 s. For the setting “after injection ended”, the SPR dissociation phase entry was “full dissociation phase was observed”.
